Test systems include NCI-H23 lung; SNB-75 CNS; SF-539 CNS; EKVX NSCLC; HCC-2998 colon; HS 578T breast; UO-31 renal; SK-MEL-5 melanoma; OVCAR-5 ovarian; M14 melanoma.
What all share (assay): NCI-60 cell line screen, 48 h

SMILES strings stand for the structures.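 Five concentrations, 48 hours, 96-well plates. GI50 marks 50% less growth. The concentration for full growth arrest is given as TGI.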 Bounds are passed on as bounds.

The values below come from PubChem BioAssay (NCI).

On to `Cc1nc2c(=O)n(-c3ccccc3)c(=O)n(-c3ccccc3)c2o1`, for which the TGI in the assay on NCI-H23 lung, with SNB-75 CNS, in the assay on SF-539 CNS, in the assay on EKVX NSCLC, with HCC-2998 colon and with HS 578T breast was above 100 µM throughout. Besides, the TGI in the assay with UO-31 renal, with SK-MEL-5 melanoma, in the assay with OVCAR-5 ovarian and with M14 melanoma was above 100 µM in each case.
As to `c1ccc2c(c1)cc1ccc3cccc4ccc2c1c34`, the TGI in the assay with NCI-H23 lung, in the assay with SNB-75 CNS, in the assay with SF-539 CNS, in the assay on EKVX NSCLC, in the assay on HCC-2998 colon and in the assay with HS 578T breast was above 100 µM each time. For the same compound, the TGI in the assay with UO-31 renal, in the assay with SK-MEL-5 melanoma, with OVCAR-5 ovarian and with M14 melanoma was above 100 µM in each case. The GI50 with OVCAR-5 ovarian is above 100 µM.
For `CC1=NN2C(=N)/C(=C/c3ccc(F)cc3)C(=O)N=C2S1`, the TGI with NCI-H23 lung, in the assay with SNB-75 CNS, in the assay on SF-539 CNS, in the assay with EKVX NSCLC, in the assay with HCC-2998 colon and in the assay on HS 578T breast was above 100 µM throughout. The TGI in the assay on UO-31 renal, in the assay on SK-MEL-5 melanoma, in the assay on OVCAR-5 ovarian and with M14 melanoma was above 100 µM throughout.
Take `C=C1C[C@@H]2O[C@H]3[C@H]4[C@@H](C[C@@H](C)[C@@H](OC(C)=O)[C@H]42)[C@@H](C)CO[C@@]3(C)[C@H](OC(=O)CCCCCCC)CC1=O`: the TGI in the assay with NCI-H23 lung stood at 40.1 µM; in the assay with SNB-75 CNS it was 24.8 µM; in the assay on SF-539 CNS it was 38 µM; in the assay with EKVX NSCLC, 32.9 µM; in the assay with HCC-2998 colon, 30.8 µM; with HS 578T breast it was 39.7 µM. Also, the TGI with UO-31 renal was found to be 29.5 µM; in the assay on SK-MEL-5 melanoma, 28.4 µM; in the assay with OVCAR-5 ovarian, 21.1 µM; in the assay with M14 melanoma, 29.1 µM.
On to `COc1ccc(C2c3cc4c(cc3OC(Nc3ccccc3)C2C)OCO4)cc1` (stereo unspecified), for which the TGI in the assay on NCI-H23 lung was above 100 µM; with SNB-75 CNS, above 100 µM; with SF-539 CNS, above 100 µM; with EKVX NSCLC, 98.7 µM; in the assay on HCC-2998 colon it was above 100 µM; with HS 578T breast, above 100 µM. For the same compound, the TGI in the assay with UO-31 renal, with SK-MEL-5 melanoma, with OVCAR-5 ovarian and in the assay on M14 melanoma was above 100 µM in each case.
With `CS(=O)(=O)Nc1ccc2ccccc2c1`, the TGI with NCI-H23 lung, with SNB-75 CNS, in the assay on SF-539 CNS, with EKVX NSCLC, with HCC-2998 colon and in the assay with HS 578T breast was above 100 µM each time. Further, the TGI in the assay on UO-31 renal, in the assay with SK-MEL-5 melanoma, with OVCAR-5 ovarian and in the assay on M14 melanoma was above 100 µM in each case.
Regarding `O=c1c2cc([N+](=O)[O-])ccc2oc2nc3n(c(=O)c12)CCCS3`, the TGI in the assay with NCI-H23 lung, in the assay with SNB-75 CNS, in the assay on SF-539 CNS, with EKVX NSCLC, with HCC-2998 colon and with HS 578T breast was above 100 µM each time. Also, the TGI in the assay with UO-31 renal, with SK-MEL-5 melanoma, in the assay with OVCAR-5 ovarian and in the assay on M14 melanoma was above 100 µM in each case.
As to `Cc1c(C(=O)NNc2ccccc2)n2c(=S)[nH]nc2c2ccccc12`, the TGI in the assay on NCI-H23 lung, in the assay on SNB-75 CNS, in the assay with SF-539 CNS, in the assay on EKVX NSCLC, in the assay with HCC-2998 colon and in the assay on HS 578T breast was above 100 µM each time. Besides, the TGI in the assay with UO-31 renal, with SK-MEL-5 melanoma, in the assay on OVCAR-5 ovarian and with M14 melanoma was above 100 µM each time.
As for `O=C1CC[C@@]23CC(=O)O[C@@H]2CCCC3C1` (stereo partly specified), the TGI in the assay on NCI-H23 lung, in the assay with SNB-75 CNS, in the assay on SF-539 CNS, in the assay on EKVX NSCLC, in the assay with HCC-2998 colon and in the assay with HS 578T breast was above 100 µM in each case. The TGI in the assay with UO-31 renal, in the assay on SK-MEL-5 melanoma, in the assay with OVCAR-5 ovarian and in the assay with M14 melanoma was above 100 µM in each case.
As to `CN(C)CCNCCCNc1c2ccccc2nc2cccc([N+](=O)[O-])c12`, the TGI is below 0.0186 µM in the assay on NCI-H23 lung; 0.0573 µM in the assay with SNB-75 CNS; 0.263 µM in the assay with SF-539 CNS; 0.0617 µM in the assay with EKVX NSCLC; below 0.0184 µM in the assay on HCC-2998 colon; 0.384 µM with HS 578T breast. Moreover, the TGI is 0.26 µM in the assay with UO-31 renal, 0.0507 µM in the assay with SK-MEL-5 melanoma, 0.0543 µM in the assay with OVCAR-5 ovarian and 0.0654 µM with M14 melanoma.
